The subject of data set [1] is HBV. The data set can be described thus: In vivo activity assay of HBV DNA in mouse plasmid model of tail vein high-pressure injection (Example 6). Details: species or system female BABL/c mice. To be noted: 30 mg/Kg, gavage, twice a day. How it is done: The purpose of this study was to test the inhibitory effect of the compound (Example 6) against HBV in mice through a mouse model of high-pressure tail vein injection. In this experiment, female BABL/c mice were used, and the mice were 6-7 weeks old. The HBV plasmid DNA was extracted by using pAAV2-HBV 1.3 mer with Qiagen EndoFree Plasmid Giga kit at a concentration of 1000 ng/μL. The resulting solution was diluted with normal saline before use and stored at 4° C. until use.
100 μL of whole blood was taken from each mouse approximately 4 hours after the first administration On days 1, 3, and 5, and the whole blood was collected into a tube containing sodium heparin, centrifuged at 4° C. at 7000 rpm for 10 minutes, and the supernatant was taken to obtain plasma. The plasma was stored in a refrigerator at −80° C. and transported to an analytical laboratory for testing under dry ice freezing condition.
1) DNA in plasma was extracted, and the experimental procedure was carried out with reference to the instruction for QIAamp 96 DNA Blood Kit.
A qPCR reaction mixture was formulated (see Table 6). The qPCR reaction mixture, sample and standard sample were added to a 96-well reaction plate. The standard sample was plasmid DNA containing the full-length sequence of type D HBV. The standard sample was diluted from 10^7 copies/μL in 10-fold gradient to successively obtain 10^6˜10^1 copies/μL of DNA standard samples. PCR reaction: 95° C., 10 min; 95° C., 15 seconds; 60° C., 1 minute; 40 cycles.
Liver tissue was taken and homogenized with a tissue grinder. After centrifugation, the supernatant was transferred to a new centrifuge tube and digested with proteinase K digestion solution for 3 hours. The resulting mixture was cooled, and then RNAse A was added thereto to incubate for 30 minutes. The RNase A-treated mixture was extracted twice with an equal volume of phenol chloroform isoamyl alcohol to remove residual protein. The supernatant was transferred to a new centrifuge tube, and isopropanol was added thereto to precipitate the DNA. The DNA precipitation was washed twice with 70% ethanol. The precipitation was then air-dried and TE (10 mM Tris-HCl, pH 8.0, 1 mM EDTA) was added thereto to dissolve the DNA.
The DNA concentrations were measured with Nanodrop and adjusted to 10 ng/μL for all the samples. 5 μL samples were added to the quantitative PCR reaction system for quantitative PCR.
HBV DNA content=DNA content detected by HBV primer-DNA content detected by pAAV2 primer.

In data set [2] the test system is HBV DNA in HepG2.2.15 cells. The data set can be described thus: In vitro anti-HBV activity assay (HBV DNA in HepG2.2.15 supernatant, qPCR). The format is cell-based. To be noted: Hepatitis B virus, HepG2.2.15, 192 h; inhibition of HBV DNA in supernatant, 8 days culture. On the procedure:
1) 100 μL of HepG2.2.15 cells were seeded at a number of 1.2×10^5 cells per well into a 96-well cell culture plate, and then the cells were cultured in a 37° C. incubator with 5% carbon dioxide (CO2) overnight. On day 2, the compounds to be tested were diluted with DMSO in 3-fold gradient to eight concentrations in total. Then the compounds were diluted 100-fold with culture medium, and 100 μL of the diluted compounds were taken and added to the cell-containing plate in a final volume of 200 μL, and the final concentration of DMSO was 0.5%, and two duplicate wells were used. The cells were cultured in a 37° C. incubator with 5% CO2 for 3 days. On day 5, the solutions in the cell culture plate were replaced with fresh culture medium containing the same concentrations of compounds. When culture was performed for 8 days, cell culture plate supernatant was collected for the extraction of HBV DNA.
2) Detection of HBV DNA by real-time quantitative PCR: the total DNA in the supernatant was extracted with QIAamp 96 DNA Blood Kit, and the content of HBV DNA was detected by quantitative PCR using HBV specific primers and probes. 20 μL PCR pre-mixed solution and 5 μL HBV DNA sample or HBV plasmid standard sample were added to a quantitative PCR plate for reaction. The HBV plasmid standard sample was diluted in 10-fold gradient to seven concentrations from 10^7 to 10 copies/μL. The quantitative PCR reaction procedure was as follows: pre-denaturation at 95° C. for 10 minutes; denaturation at 95° C. for 15 seconds, reaction at 60° C. for 1 minute, and this cycle was repeated 40 times. The inhibition rate of each well against HBV DNA was calculated according to the following equation, and the inhibition rate data of the compounds were subjected to a non-linear fitting analysis using GraphPad Prism software to obtain EC50 values of the compounds. HBV DNA inhibition rate %=(1−copy number of HBV DNA of the sample/copy number of HBV DNA of DMSO control)*100% The assay results are shown in Table 1 below.

Data set [3] can be described thus: Pharmacokinetic study for mouse (single intravenous or gavage administration). The format is in vivo, mice. The following applies: for AUC(0-t): read-out: AUC0-24 h. How it is done: This experiment aims to evaluate the pharmacokinetic behavior of the compounds after a single intravenous or gavage administration in mice. As for the intravenous administration, the compounds were formulated into 0.5 mg/mL clear solutions, vehicle: 5% DMSO/5% 12-hydroxy stearate (solutol)/90% water; as for the gavage administration, the compounds were formulated into 2 mg/mL suspensions, vehicle: 0.5% sodium carboxymethylcellulose/0.2% Tween 80/99.3% water.
The concentrations of the compounds in plasma were determined by high-performance liquid chromatography-tandem mass spectrometry (LC-MS/MS). The retention time, chromatogram acquisition and integration of the chromatograms of the compounds and the internal standard (diclofenac) were processed using the software Analyst (Applied Biosystems), and data statistics were processed using the software Watson LIMS (Thermo Fisher Scientific) or Analyst (Applied Biosystems). The concentration unit of the analyte in the sample is ng/mL, 3 significant digits were retained, and all the values represented by percentages (e.g., % deviation and % coefficient of variation, etc.) have one decimal place. Each calibration curve contains at least 6 concentration levels. The calibration standard samples were formulated using stock solutions from different sources from the quality control samples. If the deviation between the calculated concentration of a calibration standard sample and the indicated value exceeds ±15.0% (the lower limit of quantitation exceeds ±20.0%), such standard sample should be excluded in regression analysis. The excluded calibration standard samples should be less than 25%, and each calibration curve contains at least 6 calibration standard samples that meet the acceptable standard. If the calibration standard samples at the lower and upper limits of quantification need to be excluded, the upper and lower limits of quantification of this batch of analytes will be increased and decreased accordingly.
Plasma concentrations were processed using a non-compartmental model of the WinNonlin™ Version 6.3 (Pharsight, Mountain View, Calif.) pharmacokinetic software, and pharmacokinetic parameters were calculated using the linear logarithmic trapezoidal method. The pharmacokinetic parameters to be calculated include, but are not limited to (if the data is not allowed), T1/2, Vdss, CL, AUC0-24h of the intravenous group; Cmax, Tmax, AUC0-24h and bioavailability (F %) of the oral gavage group.

Where [4] appears, read: plasma, intravenous injection, 1 mg/Kg.

Where two headings read alike, the source gives them in different places.

On to `C[C@H]1Cc2noc(-c3ccc(F)cc3F)c2CN1C(=O)Nc1cc(F)c(F)c(F)c1` [Example 6], for which the “Log HBV DNA mean value” in data set [1] (liver tissue after 7 days of administration, solvent control 5.67) is listed as 3.09 copy number/μL; in data set [1] (plasma, Day 1, solvent control 2.22, Log(LLOQ) = 1.60), 2.23 copy number/μL; in data set [1] (plasma, Day 3, solvent control 4.51, Log(LLOQ) = 1.60), 1.74 copy number/μL; in data set [1] (plasma, Day 5, solvent control 5.01, Log(LLOQ) = 1.60), 2.02 copy number/μL; in data set [1] (plasma, Day 7, solvent control 3.30, Log(LLOQ) = 1.60) it was 1.85 copy number/μL. In addition, the midpoint of the response in data set [2], the EC50, lay at 4.9 nM. This molecule had a F in data set [3] (oral gavage, 10 mg/Kg) of 58.4%. In data set [3] (setting [4]), this molecule had a clearance of 2.84 mL/min/kg. Further, the half-life in data set [3] (setting [4]) was 559 min. Further, the AUC(0-t) in data set [3] (setting [4]) stood at 11.4 µM·h; in data set [3] (plasma, oral gavage, 10 mg/Kg) it was 66.7 µM·h. The Vd in data set [3] (plasma, intravenous injection, 1 mg/Kg, read-out: Vdss) is 2.33 L/kg. Further, the Cmax in data set [3] (plasma, oral gavage, 10 mg/Kg) amounted to 4.94 µM. The time to peak (Tmax) in data set [3] (plasma, oral gavage, 10 mg/Kg) worked out at 30 min.

For orientation: EC50 means the concentration that produces a half-maximal response. A low value points to an effect from little substance. Usually half-life stands for the time in which the quantity being followed falls by half. A high value points to slow loss. In general, Cmax refers to the maximum level reached in the sampled fluid or tissue. The Tmax is the time at which the peak concentration occurs.
